The record followed here is US9090600B2, “Fungicidal 4-substituted-3-{phenyl[(heterocyclylmethoxy)imino]methyl}-1,2,4-oxadizol-5(4H)-one derivatives” (BAYER INTELLECTUAL PROPERTY GMBH, priority 2011, dated 2015).

Marks after values point to notes of the source that are not given here.

By LogP is commonly meant a log measure of how a compound divides between an organic and an aqueous phase.

The conditions of this series: pH 2.7.
As for `Nc1cccc(CON=C(c2ccccc2)c2noc(=O)[nH]2)n1` (mixture of isomers) [Example 96], the LogP was 1.2 [a]. `Cc1cccc(C(=NOCc2cccc(N)n2)c2noc(=O)[nH]2)c1` (mixture of isomers) [Example 121]: the LogP is 1.47 [a].

`C#CCCOC(=O)Nc1cccc(CON=C(C(N)=NO)c2ccccc2)n1` (mixture of isomers) [Example V-1]: the LogP was 2.1 [a].

Regarding `CC(C)(C)OC(=O)Nc1cccc(CON=C(C(N)=NO)c2ccccc2F)n1` (mixture of isomers) [Example V-5], the LogP was 2.68 [a]. Under `COc1cccc(C(=NOCc2cccc(N)n2)C(N)=NO)c1` (mixture of isomers) [Example V-6] stands 0.58 [a]; under `Cc1cccc(C(=NOCc2cccc(N)n2)C(N)=NO)c1` (mixture of isomers) [Example V-7], 0.75 [a]; under `CC(C)(C)OC(=O)Nc1cccc(CON=C(C(N)=NO)c2ccc(F)cc2)n1` (mixture of isomers) [Example V-8], 2.68 [a]. As for `NC(=NO)C(=NOCc1cccc(N)n1)c1ccccc1` (mixture of isomers) [Example V-9], the LogP was 0.39 [a]. Regarding `NC(=NO)C(=NOCc1csc(N)n1)c1ccccc1Cl` (mixture of isomers) [Example V-10], the lipophilicity (LogP) is 0.73 [a]. Under `CC(C)(C)OC(=O)Nc1cccc(CON=C(C(N)=NO)c2ccccc2)n1` (mixture of isomers) [Example V-11] stands 2.54 [a]. The value for `NC(=NO)C(=NOCc1cccc(N)n1)c1cccc(F)c1` (mixture of isomers) [Example V-12] was 0.56 [a]; that for `COc1ccc(C(=NOCc2cccc(NC(=O)OC(C)(C)C)n2)C(N)=NO)cc1` (mixture of isomers) [Example V-13] was 2.51 [a]. Regarding `CC(C)(C)OC(=O)Nc1cccc(CON=C(C(N)=NO)c2ccccc2)n1` (mixture of isomers) [Example V-14], the LogP was 2.57 [a]. For `Cc1ccc(C(=NOCc2csc(N)n2)C(N)=NO)cc1` (mixture of isomers) [Example V-15], the LogP is 0.89 [a].

For the molecule `CC(C)C1(C(=O)Nc2cccc(CO/N=C(/c3ccccc3)c3noc(=O)n3C)n2)CC1(Cl)Cl` (racemic) [Example 371], the LogP is 4.35 [a].

For the molecule `Cc1ccc(/C(=N/OCc2csc(NC(=O)C3COc4ccccc4O3)n2)c2noc(=O)n2C)cc1` (racemic) [Example 392], the LogP is 3.9 [a]. As to `CC#CCC(C)OC(=O)Nc1cccc(CO/N=C(/c2ccccc2)c2noc(=O)n2C)n1` (racemic) [compound 455], the LogP is 3.89 [a]. On to `CCCCC(CC)COC(=O)Nc1cccc(CO/N=C(/c2ccccc2)c2noc(=O)n2C)n1` (racemic) [compound 463], for which the LogP was 5.54 [a].

Take `Cn1c(/C(=N\OCc2cccc(NC(=O)OCC3COC(=O)O3)n2)c2ccccc2)noc1=O` (racemic) [compound 474]: the LogP was 2.75 [a].

On to `CC(CC1CC1)OC(=O)Nc1cccc(CO/N=C(/c2ccccc2)c2noc(=O)n2C)n1` (racemic) [compound 475], for which the LogP is 4.32 [a].

With `C=CCC(C)OC(=O)Nc1cccc(CO/N=C(/c2ccccc2)c2noc(=O)n2C)n1` (racemic) [compound 479], the LogP is 4.01 [a]. `C#CCCOC(=O)Nc1cccc(CO/N=C(/c2ccccc2)c2noc(=O)[nH]2)n1` [Example 22]: the LogP is 3.09 [a]. The value for `Cn1c(/C(=N\OCc2csc(NC(=O)COc3ccccc3F)n2)c2ccccc2)noc1=O` [Example 28] was 3.51 [a]; that for `COc1ccccc1OCC(=O)Nc1cccc(CO/N=C(/c2ccccc2)c2noc(=O)n2C)n1` [Example 31] was 3.8 [a]. As to `Cn1c(/C(=N\OCc2csc(NC(=O)COc3ccc(F)cc3)n2)c2ccccc2)noc1=O` [Example 38], the LogP was 3.53 [a]. Under `CCCCCOC(=O)Nc1nc(CO/N=C(/c2ccc(C)cc2)c2noc(=O)n2C)cs1` [Example 41] stands 4.41 [a]; under `CC(C)CCCOC(=O)Nc1cccc(CO/N=C(/c2ccccc2)c2noc(=O)n2C)n1` [Example 45], 4.81 [a].

Take `Cn1c(/C(=N\OCc2cccc(NC(=O)OCCc3cccc(Br)c3)n2)c2ccccc2)noc1=O` [Example 49]: the LogP was 4.61 [a].

`CC(Cc1ccccc1)OC(=O)Nc1cccc(CO/N=C(/c2ccccc2)c2noc(=O)n2C)n1` (centres unmarked) [Example 60]: the LogP is 4.49 [a].

As to `CC(Oc1cccc(Cl)c1)C(=O)Nc1cccc(CO/N=C(/c2ccccc2)c2noc(=O)n2C)n1` (centres unmarked) [Example 64], the LogP was 4.38 [a]. For `Cn1c(/C(=N\OCc2cccc(NC(=O)COc3ccc(Br)cc3)n2)c2ccccc2)noc1=O` [Example 65], the lipophilicity (LogP) was 4.2 [a]. For the molecule `Cn1c(/C(=N\OCc2cccc(NC(=O)COc3ccc(F)cc3)n2)c2ccccc2)noc1=O` [Example 66], the LogP is 3.73 [a]. Regarding `COc1cccc(OC(C)C(=O)Nc2cccc(CO/N=C(/c3ccccc3)c3noc(=O)n3C)n2)c1` (centres unmarked) [Example 69], the LogP was 3.97 [a]. As to `Cc1ccccc1OCC(=O)Nc1cccc(CO/N=C(/c2ccccc2)c2noc(=O)n2C)n1` [Example 76], the LogP is 4.17 [a]. In the case of `Cn1c(/C(=N\OCc2csc(N)n2)c2ccccc2Cl)noc1=O` [Example 90], the LogP was 1.72 [a]. In the case of `Cn1c(/C(=N\OCc2cccc(NC(=O)COC3CCCC3)n2)c2ccccc2)noc1=O` [Example 94], the LogP is 4.04 [a]. As to `Cn1c(/C(=N\OCc2cccc(NC(=O)OC(C)(C)C)n2)c2ccccc2F)noc1=O` [Example 97], the lipophilicity (LogP) is 3.92 [a].

For `Cn1c(/C(=N\OCc2cccc(NC(=O)COc3cccc(Cl)c3)n2)c2ccccc2)noc1=O` [Example 105], the LogP was 4.1 [a]. In the case of `COc1ccccc1OC(C)C(=O)Nc1cccc(CO/N=C(/c2ccccc2)c2noc(=O)n2C)n1` (centres unmarked) [Example 115], the LogP was 4.15 [a].

In the case of `Cn1c(/C(=N\OCc2cccc(NC(=O)COc3ccccc3F)n2)c2ccccc2)noc1=O` [Example 125], the LogP was 3.76 [a]. With `CC(OCc1ccccc1)C(=O)Nc1nc(CO/N=C(/c2ccccc2)c2noc(=O)n2C)cs1` (centres unmarked) [Example 126], the LogP is 3.85 [a]. Under `Cc1cccc(OC(C)C(=O)Nc2cccc(CO/N=C(/c3ccccc3)c3noc(=O)n3C)n2)c1` (centres unmarked) [Example 128] stands 4.35 [a]; under `Nc1cccc(CON=C(c2cccc(F)c2)c2noc(=O)[nH]2)n1` [Example 129], 1.35 [a]; under `CC(C)(C)OC(=O)Nc1cccc(CO/N=C(/c2ccccc2)c2noc(=O)[nH]2)n1` [Example 135], 3.76 [a]. The value for `COc1cccc(/C(=N/OCc2cccc(N(C(=O)OC(C)(C)C)C(=O)OC(C)(C)C)n2)c2noc(=O)n2C)c1` [Example 141] was 4.44 [a]; that for `COc1cccc(/C(=N/OCc2cccc(NC(=O)OC(C)CC(C)C)n2)c2noc(=O)n2C)c1` (centres unmarked) [Example 149] was 4.72 [a]; that for `CCCCCOC(=O)Nc1nc(CO/N=C(/c2cccc(F)c2)c2noc(=O)n2C)cs1` [Example 150] was 4.19 [a].
